# Test results as given in article PMC12707294 (Analytical chemistry, 2025).
# Target: hu3F8 Fab
# Type: binding
substance,measurement,value
GD2 hexasaccharide [GD2os],Kd,2300 ± 100 nM
